Entries after “also recorded” stand apart in the source; their conditions may differ.
What was measured:
[1] = test system: THP-1-derived macrophages; test: MMP-9 secretion by THP-1-derived macrophages, gelatin zymography and densitometry; assay type: cell-based; conditions: for MMP-9 secretion (zymography), modulators of Ado metabolism: added alone or in combination, Ado 10 μM, EHNA 10 μM, DIP 10 μM
Protocol: Cells were incubated for 15 min with increasing concentrations of Ado and 10 μM EHNA before differentiation with 150 nM PMA for 48 hours. […] Concentrations of 10 μM Ado and 10 μM EHNA were used in further experiments. […] FIG. 2. […] THP-1 cells were treated for 15 min with Ado and 10 μM EHNA or vehicle before differentiation to macrophages with 150 nM PMA for 48 hours. EHNA, which inhibits Ado deaminase, and DIP, which inhibits Ado transport, were used to enhance endogenous Ado concentration. Gelatinase activity was measured in cell-free conditioned medium by zymography and densitometry. A. A representative zymogram is shown. […] C. Time-course experiment. […] FIG. 3. […] A. THP-1 cells were treated for 15 min with 10 μM Ado and 10 μM EHNA or vehicle before differentiation to macrophages with 150 nM PMA for 48 hours. […] B. THP-1 cells were treated for 15 min with 0.1, 1 or 10 μM of Ado receptors agonists (CPA, A1-specific; CGS21680, A2a-specific; IB-MECA, A3-specific). […] Gelatinase activity was assessed in conditioned medium. […] C. […] Cells were transfected with siRNA specific for A2a, A2b or A3 Ado receptors, incubated for 48 hours to achieve down-regulation of Ado receptors expression, treated for 15 min with 10 μM Ado and 10 μM EHNA or vehicle before differentiation to macrophages with 150 nM PMA for 48 hours. Conditioned medium was analysed by gelatin zymography. […] Cell culture. All cell culture reagents were from Lonza (Verviers, Belgium) unless specified otherwise. Peripheral venous blood was obtained from healthy volunteers. Peripheral blood mononuclear cells were obtained by Ficoll gradient. Monocytes were purified by negative selection using the Monocyte Isolation Kit II (Myltenyi Biotec GmbH, Bergisch Gladbach, Germany). […] Macrophages were incubated for 15 minutes with Ado/EHNA (10 μmol/L) or vehicle, then LPS (100 ng/ml) or vehicle was added and cells were incubated for another 24 hours before harvesting. Cells from the monocyte-like line THP-1 (ATCC, LGC Promochem, Teddington, UK) were propagated at 37° C.-5% CO2 in RPMI 1640 medium supplemented with L-glutamine (2 mM), Penicillin (100 Units/ml), Streptomycin (100 μg/ml), non-essential amino acids solution (1 μM), sodium pyruvate (1 mM), and 10% heat-inactivated fetal calf serum (FCS) (Eurobio, Les Ulys, France). For experiments, FCS in culture medium was reduced to 1%. Cells were treated for 15 min with EHNA vehicle (DMSO), Ado (0.01 to 100 μM), Ado receptors agonists (0.1 to 10 μM), EHNA (10 μM) or Dipyridamole (DIP) (10 μM). Cells were then differentiated into macrophages with 150 nM phorbol myristate actetate (PMA) for 24 hours. Macrophages were subsequently treated with LPS (1 to 1000 ng/ml), fMLP (10^−7 M) or H2O2 (10 mM) for another 24 hours. Analysis of gelatinase activity. Gelatin zymography was performed on culture supernatants to assess secreted MMP-9 activity. Briefly, conditioned medium was loaded on SDS-polyacrylamide gels containing 0.2% gelatin under non reducing conditions. After electrophoresis, gels were washed and incubated overnight at 37° C. in assay buffer (50 mM Tris-HCl, pH 7.6, 200 mM NaCl, 5 mM CaCl2, and 0.02% Brij35). Subsequently, gels were stained in 0.1% Coomassie Blue and destained in 25% ethanol/8% acetic acid. Densitometry was achieved using the Gel Logic 2200 Digital Imaging system and Aida Software (Kodak, Zavemtem, Belgium).

THP-1 monocytes = test: Migration assay, modified Boyden chamber coated with gelatin B, MCP-1 gradient; assay type: cell-based; conditions: for inhibition of Ado-enhanced cell migration: pre-incubation with TIMP-1 10 ng/mL or GM6001 10 nM or 1 μM
Protocol: Infiltration of monocytes/macrophages into the myocardium is a hallmark of ventricular remodelling post MI. Cell migration is facilitated by degradation of the ECM by MMP-9. We therefore tested whether the increase in MMP-9 secretion by Ado could improve monocytes migration along a gradient of MCP-1. For this purpose, the top of a modified Boyden chamber was coated with gelatin B and MCP-1 was added in the bottom compartment. Monocytes were treated with Ado before seeding on the microporous membrane of the chamber. […] This effect was inhibited by the synthetic MMP inhibitor GM6001 and the endogenous MMP-9 inhibitor TIMP-1 (FIG. 4).
FIG. 4. Ado increases monocytes migratory capacity. THP-1 monocytes were treated for 24 hours with 10 μM Ado and 10 μM EHNA or vehicle before seeding on the microporous membrane of a modified Boyden chamber pre-coated with gelatin B. 10 ng/mL MCP-1 was added in the bottom compartment. When specified, cells were pre-incubated with TIMP-1 (10 ng/mL) or GM6001 (10 nM or 1 μM) before seeding on the membrane. Cell migration was quantified by fluorescence after 24 hours. […] Results are mean±SD (n=5). * P<0.05 vs no Ado.
Migration assay. Migratory capacity of THP-1 monocytes was studied using a Transwell® system with polycarbonate microporous membranes (5 μm pore size, 24-well chamber, Costar, Lowell, USA). Membranes were coated with a 2% gelatin B solution and allowed to dry at room temperature for 2 hours. MCP-1 (10 ng/mL) was added in the bottom compartment. THP-1 monocytes were cultured in serum- and antibiotic-free medium with or without 10 μM Ado and 10 μM EHNA for 24 hours. Cells were pre-incubated for 30 min with GM 6001 (10 nM or 1 μM) or TIMP-1 (10 ng/mL) before seeding into the upper compartment at a concentration of 7.5×10^4 cells per well. After 24 hours, cells that migrated through the membrane were detached, lysed and stained by the CyQuant GR® dye (Invitrogen) for 15 min. Fluorescence was read with a POLARstar Optima (BMG LABTECH, Champigny-sur-Marne, France) microplate reader (Xex=492 nm, kem=520 nm).

MMPs = conditions: given 24-72 hours post MI; cited from earlier work
[2] = in combination with lidocaine or primary angioplasty; cited from earlier work
[3] = test system: THP-1-derived macrophages; test: MMP-9 mRNA expression in THP-1-derived macrophages, quantitative PCR; assay type: cell-based; conditions: THP-1 cells, after 48 hours of differentiation
Protocol: FIG. 2. […] THP-1 cells were treated for 15 min with Ado and 10 μM EHNA or vehicle before differentiation to macrophages with 150 nM PMA for 48 hours. EHNA, which inhibits Ado deaminase, and DIP, which inhibits Ado transport, were used to enhance endogenous Ado concentration. Gelatinase activity was measured in cell-free conditioned medium by zymography and densitometry. A. A representative zymogram is shown. […] C. Time-course experiment.
Cell culture. All cell culture reagents were from Lonza (Verviers, Belgium) unless specified otherwise. Peripheral venous blood was obtained from healthy volunteers. Peripheral blood mononuclear cells were obtained by Ficoll gradient. Monocytes were purified by negative selection using the Monocyte Isolation Kit II (Myltenyi Biotec GmbH, Bergisch Gladbach, Germany). […] Macrophages were incubated for 15 minutes with Ado/EHNA (10 μmol/L) or vehicle, then LPS (100 ng/ml) or vehicle was added and cells were incubated for another 24 hours before harvesting. Cells from the monocyte-like line THP-1 (ATCC, LGC Promochem, Teddington, UK) were propagated at 37° C.-5% CO2 in RPMI 1640 medium supplemented with L-glutamine (2 mM), Penicillin (100 Units/ml), Streptomycin (100 μg/ml), non-essential amino acids solution (1 μM), sodium pyruvate (1 mM), and 10% heat-inactivated fetal calf serum (FCS) (Eurobio, Les Ulys, France). […]
(§1) Real time quantitative PCR.

neutrophils = conditions: through A2a receptor; cited from earlier work
[4] = test system: THP-1-derived macrophages; test: Ado receptor mRNA expression in THP-1-derived macrophages, quantitative PCR; assay type: cell-based; conditions: 10 μM Ado and 10 μM EHNA, PMA 48 hours
Protocol: FIG. 3. […] A. THP-1 cells were treated for 15 min with 10 μM Ado and 10 μM EHNA or vehicle before differentiation to macrophages with 150 nM PMA for 48 hours. […] B. THP-1 cells were treated for 15 min with 0.1, 1 or 10 μM of Ado receptors agonists (CPA, A1-specific; CGS21680, A2a-specific; IB-MECA, A3-specific). […] Gelatinase activity was assessed in conditioned medium. […] C. […] Cells were transfected with siRNA specific for A2a, A2b or A3 Ado receptors, incubated for 48 hours to achieve down-regulation of Ado receptors expression, treated for 15 min with 10 μM Ado and 10 μM EHNA or vehicle before differentiation to macrophages with 150 nM PMA for 48 hours. Conditioned medium was analysed by gelatin zymography.
Cell culture. All cell culture reagents were from Lonza (Verviers, Belgium) unless specified otherwise. Peripheral venous blood was obtained from healthy volunteers. Peripheral blood mononuclear cells were obtained by Ficoll gradient. Monocytes were purified by negative selection using the Monocyte Isolation Kit II (Myltenyi Biotec GmbH, Bergisch Gladbach, Germany). […] Macrophages were incubated for 15 minutes with Ado/EHNA (10 μmol/L) or vehicle, then LPS (100 ng/ml) or vehicle was added and cells were incubated for another 24 hours before harvesting. […]
as §1

[5] = test system: primary human macrophages; test: MMP-9 secretion by primary macrophages, ELISA in conditioned medium; assay type: cell-based; conditions: Ado and EHNA 10 μmol/L each, 15 min then 24 hours, with or without LPS 100 ng/ml
Protocol: FIG. 1. […] Cell culture. All cell culture reagents were from Lonza (Verviers, Belgium) unless specified otherwise. Peripheral venous blood was obtained from healthy volunteers. Peripheral blood mononuclear cells were obtained by Ficoll gradient. Monocytes were purified by negative selection using the Monocyte Isolation Kit II (Myltenyi Biotec GmbH, Bergisch Gladbach, Germany). […] Macrophages were incubated for 15 minutes with Ado/EHNA (10 μmol/L) or vehicle, then LPS (100 ng/ml) or vehicle was added and cells were incubated for another 24 hours before harvesting. Cells from the monocyte-like line THP-1 (ATCC, LGC Promochem, Teddington, UK) were propagated at 37° C.-5% CO2 in RPMI 1640 medium supplemented with L-glutamine (2 mM), Penicillin (100 Units/ml), Streptomycin (100 μg/ml), non-essential amino acids solution (1 μM), sodium pyruvate (1 mM), and 10% heat-inactivated fetal calf serum (FCS) (Eurobio, Les Ulys, France). For experiments, FCS in culture medium was reduced to 1%. Cells were treated for 15 min with EHNA vehicle (DMSO), Ado (0.01 to 100 μM), Ado receptors agonists (0.1 to 10 μM), EHNA (10 μM) or Dipyridamole (DIP) (10 μM). Cells were then differentiated into macrophages with 150 nM phorbol myristate actetate (PMA) for 24 hours. Macrophages were subsequently treated with LPS (1 to 1000 ng/ml), fMLP (10^−7 M) or H2O2 (10 mM) for another 24 hours. […] ELISA.

[6] = test system: primary human macrophages; test: MMP-9 mRNA expression in primary macrophages, quantitative PCR; assay type: cell-based; conditions: Ado and EHNA 10 μmol/L each, 24 hours
Protocol: Cell culture. All cell culture reagents were from Lonza (Verviers, Belgium) unless specified otherwise. Peripheral venous blood was obtained from healthy volunteers. Peripheral blood mononuclear cells were obtained by Ficoll gradient. Monocytes were purified by negative selection using the Monocyte Isolation Kit II (Myltenyi Biotec GmbH, Bergisch Gladbach, Germany). […] Macrophages were incubated for 15 minutes with Ado/EHNA (10 μmol/L) or vehicle, then LPS (100 ng/ml) or vehicle was added and cells were incubated for another 24 hours before harvesting. Cells from the monocyte-like line THP-1 (ATCC, LGC Promochem, Teddington, UK) were propagated at 37° C.-5% CO2 in RPMI 1640 medium supplemented with L-glutamine (2 mM), Penicillin (100 Units/ml), Streptomycin (100 μg/ml), non-essential amino acids solution (1 μM), sodium pyruvate (1 mM), and 10% heat-inactivated fetal calf serum (FCS) (Eurobio, Les Ulys, France). For experiments, FCS in culture medium was reduced to 1%. Cells were treated for 15 min with EHNA vehicle (DMSO), Ado (0.01 to 100 μM), Ado receptors agonists (0.1 to 10 μM), EHNA (10 μM) or Dipyridamole (DIP) (10 μM). Cells were then differentiated into macrophages with 150 nM phorbol myristate actetate (PMA) for 24 hours. Macrophages were subsequently treated with LPS (1 to 1000 ng/ml), fMLP (10^−7 M) or H2O2 (10 mM) for another 24 hours.
as §1

CNC(=O)[C@H]1O[C@@H](n2cnc3c(NCc4cccc(I)c4)ncnc32)[C@H](O)[C@@H]1O [IB-MECA, 1-deoxy-1-[6-[[(3-iodophenyl)methyl]amino]-9H-purine-9-yl]-N-methyl-Dribofuranuronamide]
MMP-9 secretion with Ado receptor agonists ([1]; 0.1, 1 or 10 μM agonist for 15 min, EHNA omitted, PMA 48 hours): increase MMP-9 secretion to the same extent as Ado

TIMP-1: recombinant human protein TIMP-1 (R&D Systems), endogenous MMP-9 inhibitor
inhibition of Ado-enhanced cell migration (THP-1 monocytes): partly prevented; also recorded: inhibited

COc1ccc(C(=O)Nc2ccc(S(=O)(=O)NC(CC#CCN3CCOCC3)C(=O)O)cc2)cc1 (stereo not shown) [PG-116800]
outcome after MI (MMPs): did not improve outcome
prevention of LV remodelling after MI (MMPs): failed to prevent LV remodelling

CCCCCC[C@@H]([C@@H](C)O)n1cnc2c(N)ncnc21 (racemic) [EHNA]
MMP-9 secretion (zymography), modulators of Ado metabolism ([1]; PMA 48 hours): triggered MMP-9 secretion

OCCN(CCO)c1nc(N2CCCCC2)c2nc(N(CCO)CCO)nc(N3CCCCC3)c2n1 [DIP, Dipyridamole]
MMP-9 secretion (zymography), modulators of Ado metabolism ([1]; PMA 48 hours): triggered MMP-9 secretion

CNC(=O)[C@H](Cc1c[nH]c2ccccc12)NC(=O)[C@@H](CC(=O)NO)CC(C)C [GM6001, (R)-N-4-Hydroxy-N1-[(S)-2-(1H-indol-3-yl)-1-methylcarbamoly-ethyl]-2-isobutyl-succinamide]
inhibition of Ado-enhanced cell migration (THP-1 monocytes): partly prevented; also recorded: inhibited

Nc1ncnc2c1ncn2[C@@H]1O[C@H](CO)[C@@H](O)[C@H]1O [adenosine]
cardiac function of patients with MI [2]: improved cardiac function
MMP-9 mRNA expression [3]: more than two-fold increase
MMP-9 secretion by neutrophils (neutrophils): inhibits MMP-9 secretion
increase of MMP-9 production ([1]; 100 μM Ado with 10 μM EHNA, 15 min before differentiation with 150 nM PMA for 48 hours): 3 fold
MMP-9 secretion (zymography), modulators of Ado metabolism ([1]; PMA 48 hours): triggered MMP-9 secretion
incubation period necessary to reproduce the effect of Ado on MMP-9 ([1]; time-course experiment, zymography of culture medium): at least 18 hours
A2b receptor expression (mRNA) [4]: more than two-fold increase
A3 receptor expression (mRNA) [4]: more than two-fold increase
MMP-9 secretion in cell supernatant as measured by ELISA [5]: mild but significant increase
MMP-9 secretion in cell supernatant as measured by ELISA ([5]; listed as Ado): significantly increased
MMP-9 mRNA expression [6]: increased
cell migration through the gelatin layer (THP-1 monocytes; 10 μM Ado and 10 μM EHNA for 24 hours, MCP-1 10 ng/mL, migration after 24 hours): enhanced cell migration
